Data taken from ChEMBL document CHEMBL3120151, “Synthesis and in vivo evaluation of N-ethylamino-2-oxo-1,2-dihydro-quinoline-3-carboxamide for inhibition of intestinal tumorigenesis in APC(Min/+) mice” (Bioorg Med Chem Lett, 2014).
Active and inactive are the calls of the source. The rule behind the calls is not given here.

Columns and labels:
[1] = system: Mus musculus; experiment: Toxicity in APCMin/+ mouse model assessed as change in body weight at 150 ppm administered with diet from week 6 to week 18 relative to control; format: organism-based; conditions: in vivo, po
[2] = system: Cancer cell lines; experiment: Antitumor activity against colon cancer cells in APCMin/+ mouse model assessed as inhibition of colon tumor formation at 150 ppm administered with diet from week 6 to week 18 relative to control; format: functional
[3] = system: Mus musculus; experiment: Antitumor activity against intestinal polyp in APCMin/+ mouse model assessed as reduction in intestinal polyp formation with size >2 mm at 150 ppm administered with diet from week 6 to week 18 relative to control; format: functional
[4] = system: Mus musculus; experiment: Antitumor activity against intestinal polyp in APCMin/+ mouse model at 150 ppm administered with diet from week 6 to week 18 relative to control; format: functional

## NCCNC(=O)c1cc2ccccc2[nH]c1=O
[1]
  Activity: Non-toxic
[2]
  Activity: inactive
[3]
  Activity: Active
[4]
  Activity: inactive
